# Measured values from article PMC11589570, “Critical assessment of LC3/GABARAP ligands used for degrader development and ligandability of LC3/GABARAP binding pockets” (Nature Communications, 2024).
# Where two headings read alike, the source gives them in different places.
# Biological target: LC3B (Homo sapiens, UniProt Q9GZQ8)
# Details: for CSP: LC3B:ligand molar ratio 1:2; for 3D Mapping code: molar ratio 1:2
compound,measurement,setting,value
O=C1Nc2ccc(I)cc2C1=Cc1cc(Br)c(O)c(Br)c1 [compound 4],Kd,,≥ 200 µM
same,CSP induced,"I34 HN resonance, molar ratio 10O5:LC3B 1",0.019
same,CSP induced,"I34 HN resonance, molar ratio 10O5:LC3B 2",0.03102
same,CSP induced,"I34 HN resonance, molar ratio 10O5:LC3B 8",0.06113
same,CSP induced,"K51 HN resonance, molar ratio 10O5:LC3B 1",0.02725
same,CSP induced,"K51 HN resonance, molar ratio 10O5:LC3B 2",0.0413
same,CSP induced,"K51 HN resonance, molar ratio 10O5:LC3B 8",0.0854
same,CSP induced,"L82 HN resonance, molar ratio 10O5:LC3B 1",0.01304
same,CSP induced,"L82 HN resonance, molar ratio 10O5:LC3B 2",0.03131
same,CSP induced,"L82 HN resonance, molar ratio 10O5:LC3B 8",0.0642
same,CSP,LC3B residue A75,0.00342 ppm
same,CSP,LC3B residue A78,0.00654 ppm
same,CSP,LC3B residue A114,0.006 ppm
same,CSP,LC3B residue D19,0.011 ppm
same,CSP,LC3B residue D48,0.026 ppm
same,3D Mapping code,LC3B residue D48,Light green (intermediate (SD < CSP <2xSD))
same,CSP,LC3B residue D56,0.017 ppm
same,3D Mapping code,LC3B residue D56,Light green (intermediate (SD < CSP <2xSD))
same,CSP,LC3B residue D104,0.00224 ppm
same,CSP,LC3B residue D106,0.00462 ppm
same,CSP,LC3B residue E14,0.00184 ppm
same,CSP,LC3B residue E18,0.00544 ppm
same,CSP,LC3B residue E25,0.018 ppm
same,3D Mapping code,LC3B residue E25,Light green (intermediate (SD < CSP <2xSD))
same,CSP,LC3B residue E36,0.023 ppm
same,3D Mapping code,LC3B residue E36,Light green (intermediate (SD < CSP <2xSD))
same,CSP,LC3B residue E41,0.002 ppm
same,CSP,LC3B residue E62,0.016 ppm
same,3D Mapping code,LC3B residue E62,Light green (intermediate (SD < CSP <2xSD))
same,CSP,LC3B residue E97,0.013 ppm
same,CSP,LC3B residue E100,0.015 ppm
same,CSP,LC3B residue E102,0.00152 ppm
same,CSP,LC3B residue E105,0.00355 ppm
same,CSP,LC3B residue E117,0.010 ppm
same,CSP,LC3B residue F07,0.011 ppm
same,CSP,LC3B residue F13,0.00221 ppm
same,CSP,LC3B residue F52,0.070 ppm
same,3D Mapping code,LC3B residue F52,Orange (strong (2xSD <CSP))
same,CSP,LC3B residue F108,0.00424 ppm
same,CSP,LC3B residue F119,0.003 ppm
same,CSP,"LC3B residue G40, estimated",0.006 ppm
same,3D Mapping code,LC3B residue G85,Light green (intermediate (SD < CSP <2xSD))
same,CSP,LC3B residue G107,0.005 ppm
same,CSP,LC3B residue H27,0.018 ppm
same,3D Mapping code,LC3B residue H27,Light green (intermediate (SD < CSP <2xSD))
same,CSP,LC3B residue H57,0.022 ppm
same,3D Mapping code,LC3B residue H57,Light green (intermediate (SD < CSP <2xSD))
same,3D Mapping code,LC3B residue H86,Light green (intermediate (SD < CSP <2xSD))
same,CSP,LC3B residue I23,0.018 ppm
same,3D Mapping code,LC3B residue I23,Light green (intermediate (SD < CSP <2xSD))
same,CSP,LC3B residue I31,0.020 ppm
same,3D Mapping code,LC3B residue I31,Light green (intermediate (SD < CSP <2xSD))
same,CSP,LC3B residue I34,0.026 ppm
same,3D Mapping code,LC3B residue I34,Light green (intermediate (SD < CSP <2xSD))
same,CSP,LC3B residue I35,0.011 ppm
same,CSP,LC3B residue I64,0.035 ppm
same,3D Mapping code,LC3B residue I64,Orange (strong (2xSD <CSP))
same,CSP,LC3B residue I66,0.00535 ppm
same,CSP,LC3B residue I67,0.022 ppm
same,3D Mapping code,LC3B residue I67,Light green (intermediate (SD < CSP <2xSD))
same,3D Mapping code,LC3B residue I95,Light green (intermediate (SD < CSP <2xSD))
same,CSP,LC3B residue K08,0.006 ppm
same,CSP,LC3B residue K30,0.022 ppm
same,3D Mapping code,LC3B residue K30,Light green (intermediate (SD < CSP <2xSD))
same,CSP,LC3B residue K39,0.008 ppm
same,CSP,LC3B residue K42,0.00565 ppm
same,CSP,LC3B residue K49,0.017 ppm
same,3D Mapping code,LC3B residue K49,Light green (intermediate (SD < CSP <2xSD))
same,CSP,LC3B residue K51,0.037 ppm
same,3D Mapping code,LC3B residue K51,Orange (strong (2xSD <CSP))
same,CSP,LC3B residue K65,0.004 ppm
same,CSP,LC3B residue K103,0.011 ppm
same,CSP,LC3B residue L22,0.009 ppm
same,CSP,LC3B residue L44,0.00371 ppm
same,CSP,LC3B residue L47,0.022 ppm
same,3D Mapping code,LC3B residue L47,Light green (intermediate (SD < CSP <2xSD))
same,CSP,LC3B residue L53,0.052 ppm
same,3D Mapping code,LC3B residue L53,Orange (strong (2xSD <CSP))
same,CSP,LC3B residue L63,0.011 ppm
same,CSP,LC3B residue L71,0.011 ppm
same,CSP,LC3B residue L73,0.011 ppm
same,3D Mapping code,LC3B residue L81,Light green (intermediate (SD < CSP <2xSD))
same,3D Mapping code,LC3B residue L82,Light green (intermediate (SD < CSP <2xSD))
same,CSP,LC3B residue L109,0.00462 ppm
same,CSP,"LC3B residue M01, estimated",0.002 ppm
same,CSP,LC3B residue M60,0.024 ppm
same,3D Mapping code,LC3B residue M60,Light green (intermediate (SD < CSP <2xSD))
same,CSP,LC3B residue M111,0.018 ppm
same,3D Mapping code,LC3B residue M111,Light green (intermediate (SD < CSP <2xSD))
same,CSP,LC3B residue N59,0.072 ppm
same,3D Mapping code,LC3B residue N59,Orange (strong (2xSD <CSP))
same,CSP,LC3B residue N74,0.002 ppm
same,CSP,LC3B residue N76,0.00173 ppm
